In brackets after ≈: the same amount, converted by molar mass. Where two headings read alike, the source gives them in different places. Positions of bridges follow the written chain, without caps; N, C: chain ends. Non-standard residues stand in square brackets, D forms with d. Residues, ends and D or L forms follow the SMILES beside them. *: point of attachment. Phenylacetyl(3-Cl) = O=C(Cc1cccc(Cl)c1)*; Benzoyl(2,3-Cl2) = O=C(c1cccc(Cl)c1Cl)*; Heptanoyl(6-Me) = CC(C)CCCCC(=O)*; X23 = O=C(c1c(Cl)cc(Cl)cc1Cl)*; Dab = NCC[C@H](N)C(=O)O; Abu = CC[C@H](N)C(=O)O; Dap = NC[C@H](N)C(=O)O; PhAc = O=C(Cc1ccccc1)*
How the values were obtained:
Pseudomonas aeruginosa = settings: for Minimum inhibitory concentration, Pa ATCC 27853: Pseudomonas aeruginosa ATCC 27853; for Minimum inhibitory concentration, Pa ATCC 27853 / Minimum inhibitory concentration, Pa FADDI-PA022 / Minimum inhibitory concentration, Pa FADDI-PA025: broth microdilution in CAMHB; for Minimum inhibitory concentration, Pa FADDI-PA022: Pseudomonas aeruginosa FADDI-PA022; for Minimum inhibitory concentration, Pa FADDI-PA025: Pseudomonas aeruginosa FADDI-PA025
Procedure, shortened: (§1)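 Broth microdilution MICs following CLSI standards in cation-adjusted Mueller-Hinton broth. Lipopeptides tested as TFA salts; polymyxin B sulphate served as control.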

Acinetobacter baumannii = settings: for Minimum inhibitory concentration, Ab A ATCC 17978: Acinetobacter baumannii ATCC 17978; for Minimum inhibitory concentration, Ab A ATCC 17978 / Minimum inhibitory concentration, Ab ATCC 19606 / Minimum inhibitory concentration, Ab FADDI-AB034: broth microdilution in CAMHB; for Minimum inhibitory concentration, Ab ATCC 19606: Acinetobacter baumannii ATCC 19606; for Minimum inhibitory concentration, Ab FADDI-AB034: Acinetobacter baumannii FADDI-AB034
Procedure, shortened: as §1

Enterobacter cloacae = settings: for Minimum inhibitory concentration, Ec FADDI-EC001: Enterobacter cloacae FADDI-EC001; for Minimum inhibitory concentration, Ec FADDI-EC001 / Minimum inhibitory concentration, Ec FADDI-EC003 / Minimum inhibitory concentration, Ec FADDI-EC006: broth microdilution in CAMHB; for Minimum inhibitory concentration, Ec FADDI-EC003: Enterobacter cloacae FADDI-EC003; for Minimum inhibitory concentration, Ec FADDI-EC006: Enterobacter cloacae FADDI-EC006
Procedure, shortened: as §1

[1] = Nephrotoxicity in a mouse model (kidney histology score); format: in vivo; set-up: key to Max Overall Kidney Histology Score: product of % score and grade score (grade 1-3); 30 to <45 = moderate; settings: mice, subcutaneous 12 mg base/kg, 6 doses in one day every 2 h; for Max Overall Kidney Histology Score: kidney ~20 h after last dose, product of percentage score and grade score; for Max Kidney Histology Score: semiquantitative score (SQS) 0 to +5
Protocol: PMB sulphate (Batch 20120204) and colistin sulphate (Batch 20120719) were supplied by Betapharma (Shanghai Co., Ltd, China). […] At ˜20 h after the last dose, mice were euthanised by inhalation of an overdose of isoflurane. […] The formalin-fixed kidneys were then sent to the Australian Phenomics Network-Histopathology and Organ Pathology (The University of Melbourne, Parkville, VIC, Australia) for histological examination. The samples were examined by a pathologist who was blind to the treatment groups. Lesions were rated as follows: mild acute tubular damage with tubular dilation, prominent nuclei and a few pale […] tubular casts (Grade 1); severe acute tubular damage with necrosis of tubular epithelial cells and numerous tubular casts (Grade 2); acute cortical necrosis/infarction of tubules and glomeruli with or without papillary necrosis (Grade 3). […] The overall kidney histology score was calculated as the product of percentage score and grade score. […] These scores were assigned as follows: […] SQS+3=moderate damage (overall score, 30 to <45); […]

Klebsiella pneumoniae = tested on: Klebsiella pneumoniae
Procedure, shortened: as §1

P. aeruginosa ATCC 27853 = assay: In vivo efficacy in mouse blood infection model (neutropenic Swiss mice); settings: compound, free base 4 mg/kg intravenously 2 h after inoculation, blood at 4 h
Procedure, shortened: (§2)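 Neutropenic Swiss mice (cyclophosphamide 150 mg/kg day −4, 100 mg/kg day −1, i.p.) infected i.v. with early log-phase bacteria; 4 mg/kg free base i.v. given 2 h post-inoculation. Blood CFU by cardiac puncture 4 h post-dose; Δlog10 CFU/mL treated versus saline controls.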

A. baumannii ATCC 19606 = assay: as above; settings: compound, free base 4 mg/kg intravenously 2 h after inoculation, blood at 4 h
Procedure, shortened: as §2

[2] = tested on: K. pneumoniae FADDI-KP032; assay: as above; settings: compound, free base 4 mg/kg intravenously 2 h after inoculation, blood at 4 h
Procedure, shortened: as §2

Molecule	Minimum inhibitory concentration, Pa ATCC 27853 (Pseudomonas aeruginosa)	Minimum inhibitory concentration, Pa FADDI-PA022 (Pseudomonas aeruginosa)	Minimum inhibitory concentration, Pa FADDI-PA025 (Pseudomonas aeruginosa)	Minimum inhibitory concentration, Ab A ATCC 17978 (Acinetobacter baumannii)	Minimum inhibitory concentration, Ab ATCC 19606 (Acinetobacter baumannii)	Minimum inhibitory concentration, Ab FADDI-AB034 (Acinetobacter baumannii)	Minimum inhibitory concentration, Ec FADDI-EC001 (Enterobacter cloacae)	Minimum inhibitory concentration, Ec FADDI-EC003 (Enterobacter cloacae)	Minimum inhibitory concentration, Ec FADDI-EC006 (Enterobacter cloacae)	Max Overall Kidney Histology Score [1]	Max Kidney Histology Score [1]	Δ log (Treated-Control at 4 h) (P. aeruginosa ATCC 27853)	further results
CC[C@@H]1NC(=O)[C@@H](CC(C)C)NC(=O)[C@H](CCN)NC(=O)[C@@H](NC(=O)[C@H](CN)NC(=O)[C@@H](NC(=O)[C@H](CCN)NC(=O)Cc2ccccc2)[C@@H](C)O)CCNC(=O)[C@H]([C@@H](C)O)NC(=O)[C@H](CCN)NC(=O)[C@H](CCN)NC1=O [Compound 78] (PhAc-[Dab]T[Dap][Dab][Dab][dL][Abu][Dab][Dab]T; lactam 4-C)	1 µg/mL (≈ 0.905 µM)	0.5 µg/mL (≈ 0.452 µM)	4 µg/mL (≈ 3.62 µM)	2 µg/mL (≈ 1.81 µM)	4 µg/mL (≈ 3.62 µM)	2 µg/mL (≈ 1.81 µM)	0.25 µg/mL (≈ 0.226 µM)	0.25 µg/mL (≈ 0.226 µM)	0.5 µg/mL (≈ 0.452 µM)	0.0	0 (SQS 0=no significant change (overall score, <1))		
CC[C@@H]1NC(=O)[C@@H](CC(C)C)NC(=O)[C@H](CCN)NC(=O)[C@@H](NC(=O)[C@H](CN)NC(=O)[C@@H](NC(=O)[C@H](CCN)NC(=O)Cc2cccc(Cl)c2)[C@@H](C)O)CCNC(=O)[C@H]([C@@H](C)O)NC(=O)[C@H](CCN)NC(=O)[C@H](CCN)NC1=O [Compound 79] ({Phenylacetyl(3-Cl)}-[Dab]T[Dap][Dab][Dab][dL][Abu][Dab][Dab]T; lactam 4-C)	0.5 µg/mL (≈ 0.439 µM)	1 µg/mL (≈ 0.877 µM)	1 µg/mL (≈ 0.877 µM)	0.5 µg/mL (≈ 0.439 µM)	1 µg/mL (≈ 0.877 µM)	1 µg/mL (≈ 0.877 µM)	0.25 µg/mL (≈ 0.219 µM)	<0.125 µg/mL	2 µg/mL (≈ 1.75 µM)	5.0	+1 (SQS+1=mild damage (overall score, 1 to <15))	−2.28 log10 CFU/mL	MIC (Pseudomonas aeruginosa; P. aeruginosa ATCC 27853): 0.5 µg/mL (≈ 0.439 µM); MIC (Acinetobacter baumannii; A. baumannii ATCC 19606): 1 µg/mL (≈ 0.877 µM); MIC (Klebsiella pneumoniae; K. pneumoniae FADDI-KP032): <0.125 µg/mL
CC[C@@H]1NC(=O)[C@@H](CC(C)C)NC(=O)[C@H](CCN)NC(=O)[C@@H](NC(=O)[C@H](CN)NC(=O)[C@@H](NC(=O)[C@H](CCN)NC(=O)c2cccc(Cl)c2Cl)[C@@H](C)O)CCNC(=O)[C@H]([C@@H](C)O)NC(=O)[C@H](CCN)NC(=O)[C@H](CCN)NC1=O [Compound 90] ({Benzoyl(2,3-Cl2)}-[Dab]T[Dap][Dab][Dab][dL][Abu][Dab][Dab]T; lactam 4-C)	0.5 µg/mL (≈ 0.431 µM)	2 µg/mL (≈ 1.72 µM)	2 µg/mL (≈ 1.72 µM)	1 µg/mL (≈ 0.862 µM)	2 µg/mL (≈ 1.72 µM)	8 µg/mL (≈ 6.9 µM)	0.5 µg/mL (≈ 0.431 µM)	8 µg/mL (≈ 6.9 µM)	0.25 µg/mL (≈ 0.215 µM)	0.0	0 (SQS 0=no significant change (overall score, <1))		
CC[C@@H]1NC(=O)[C@@H](CC(C)C)NC(=O)[C@H](CCN)NC(=O)[C@@H](NC(=O)[C@H](CN)NC(=O)[C@@H](NC(=O)[C@H](CCN)NC(=O)c2c(Cl)cc(Cl)cc2Cl)[C@@H](C)O)CCNC(=O)[C@H]([C@@H](C)O)NC(=O)[C@H](CCN)NC(=O)[C@H](CCN)NC1=O [Compound 95] (X23-[Dab]T[Dap][Dab][Dab][dL][Abu][Dab][Dab]T; lactam 4-C)	2 µg/mL (≈ 1.67 µM)	4 µg/mL (≈ 3.35 µM)	2 µg/mL (≈ 1.67 µM)	0.25 µg/mL (≈ 0.209 µM)	0.25 µg/mL (≈ 0.209 µM)	0.25 µg/mL (≈ 0.209 µM)	<0.125 µg/mL	0.25 µg/mL (≈ 0.209 µM)	1 µg/mL (≈ 0.837 µM)	0.0	0 (SQS 0=no significant change (overall score, <1))		
CC(C)CCCCC(=O)N[C@@H](CCN)C(=O)N[C@H](C(=O)N[C@@H](CCN)C(=O)N[C@H]1CCNC(=O)[C@H]([C@@H](C)O)NC(=O)[C@H](CCN)NC(=O)[C@H](CCN)NC(=O)[C@H]([C@@H](C)O)NC(=O)[C@@H](CC(C)C)NC(=O)[C@H](CCN)NC1=O)[C@@H](C)O [Compound 153, polymyxin M2] ({Heptanoyl(6-Me)}-[Dab]T[Dab][Dab][Dab][dL]T[Dab][Dab]T; lactam 4-C)												−2.73 log10 CFU/mL	MIC (Pseudomonas aeruginosa): 0.5 µg/mL (≈ 0.437 µM); Minimum inhibitory concentration (MIC), Pa ATCC 27853 (Pseudomonas aeruginosa): 0.5 µg/mL (≈ 0.437 µM); Minimum inhibitory concentration (MIC), Pa FADDI-PA022 (Pseudomonas aeruginosa): 4 µg/mL (≈ 3.5 µM); Minimum inhibitory concentration (MIC), Pa FADDI-PA025 (Pseudomonas aeruginosa): >32 µg/mL; MIC (Acinetobacter baumannii): 2 µg/mL (≈ 1.75 µM); Minimum inhibitory concentration (MIC), Ab ATCC 17978 (Acinetobacter baumannii): 2 µg/mL (≈ 1.75 µM); Minimum inhibitory concentration (MIC), Ab ATCC 19606 (Acinetobacter baumannii): 2 µg/mL (≈ 1.75 µM); Minimum inhibitory concentration (MIC), Ab FADDI-AB034 (Acinetobacter baumannii): 1 µg/mL (≈ 0.875 µM); MIC (Klebsiella pneumoniae): 0.25 µg/mL (≈ 0.219 µM); Minimum inhibitory concentration (MIC), Ec FADDI-EC001 (Enterobacter cloacae): 0.25 µg/mL (≈ 0.219 µM); Minimum inhibitory concentration (MIC), Ec FADDI-EC003 (Enterobacter cloacae): 0.25 µg/mL (≈ 0.219 µM); Minimum inhibitory concentration (MIC), Ec FADDI-EC006 (Enterobacter cloacae): 0.5 µg/mL (≈ 0.437 µM); Δ log (Treated-Control at 4 h) (A. baumannii ATCC 19606): −1.26 log10 CFU/mL; Δ log (Treated-Control at 4 h) [2]: −3.59 log10 CFU/mL
polymyxin B [reference compound]	1 µg/mL	1 µg/mL	1 µg/mL	1 µg/mL	1 µg/mL	0.5 µg/mL	0.25 µg/mL	0.5 µg/mL	0.5 µg/mL	60.0	+5 (SQS+5=severe damage (overall score, >60))		nephrotoxicity in the in vivo nephrotoxicity model ([1]; kidney histology ~20 h after last dose): severe nephrotoxicity
